Results from US4694069A, “Kibdelosporangium aridum SK&F-AAD-609” (SmithKline Beckman Corporation, priority 1985, dated 1987).

System: SK&F-AAD-609
Experiment: Susceptibility of SK&F-AAD-609 to antibiotics (diffusion method, BBL susceptibility disks)
Type: cell-based, Kibdelosporangium aridum subsp. largum
Settings: 28° C., one week
Experimental: Susceptibility of SK&F-AAD-609 to antibiotics was examined by placing BBL susceptibility disks on nutrient agar plates seeded with SK&F-ADD-609 as an agar overlay. Plates were placed at 4° C. for one hour to permit diffusion of the anitbiotics and, subsequently, incubated at 28° C. Diameters of the zones of inhibition were measured after incubation for one week.
Susceptibility to Antibiotics. […] Chlortetracycline (5 μg) produced 17-18 mm zones of inhibition; tetracycline (5 μg) 9-12 mm zones; rifampin (5 μg) 10-12 mm zones; novobiocin (5 μg) 30-35 mm zones. All zones of inhibition contained at least a few resistant colonies.

Row | Compound | Susceptibility (diffusion method) (disk 10 μg) | Zone of inhibition (diameter) (disk 5 μg) | other results
1 | CC1(C)S[C@@H]2[C@H](NC(=O)[C@H](N)c3ccccc3)C(=O)N2[C@H]1C(=O)O [ampicillin] | resistant |  | 
2 | CO[C@H]1/C=C/O[C@@]2(C)Oc3c(C)c(O)c4c(O)c(c(/C=N/N5CCN(C)CC5)c(O)c4c3C2=O)NC(=O)/C(C)=C\C=C\[C@H](C)[C@H](O)[C@@H](C)[C@@H](O)[C@@H](C)[C@H](OC(C)=O)[C@@H]1C [rifampin] |  | 10-12 mm | 
3 | CN(C)[C@@H]1C(=O)C(C(N)=O)=C(O)[C@@]2(O)C(=O)C3=C(O)c4c(O)cccc4[C@@](C)(O)[C@H]3C[C@@H]12 [tetracycline] |  | 9-12 mm | 
4 | NC[C@H]1O[C@H](O[C@H]2[C@H](O)[C@@H](O[C@H]3O[C@H](CO)[C@@H](O)[C@H](N)[C@H]3O)[C@H](N)C[C@@H]2N)[C@H](N)C[C@@H]1O [tobramycin] | resistant |  | 
5 | CN(C)[C@@H]1C(O)=C(C(N)=O)C(=O)[C@@]2(O)C(O)=C3C(=O)c4c(O)ccc(Cl)c4[C@@](C)(O)[C@H]3C[C@@H]12 [Chlortetracycline] |  | 17-18 mm | 
6 | CC1(C)S[C@@H]2[C@H](NC(=O)Cc3ccccc3)C(=O)N2[C@H]1C(=O)O [penicillin] |  |  | Susceptibility (diffusion method) (disk 10 units): resistant
7 | CO[C@@H]1[C@@H](OC(N)=O)[C@@H](O)[C@H](Oc2ccc3c(O)c(NC(=O)c4ccc(O)c(CC=C(C)C)c4)c(=O)oc3c2C)OC1(C)C [novobiocin] |  | 30-35 mm | 
8 | CC(=O)OCC1=C(C(=O)O)N2C(=O)[C@@H](NC(=O)Cc3cccs3)[C@H]2SC1 [cephalothin] |  |  | Susceptibility (diffusion method) (disk 30 μg): resistant
9 | O=C(N[C@H](CO)[C@H](O)c1ccc([N+](=O)[O-])cc1)C(Cl)Cl [chloramphenicol] |  |  | Susceptibility (diffusion method) (disk 5 μg): resistant
10 | [H]/N=C(/N)N[C@H]1[C@H](O)[C@@H](O)[C@H](O[C@@H]2O[C@@H](C)[C@](O)(C=O)[C@H]2O[C@@H]2O[C@@H](CO)[C@H](O)[C@@H](O)[C@@H]2NC)[C@@H](N/C(N)=N\[H])[C@@H]1O [streptomycin] | resistant |  | 
11 | gentamicin | resistant |  | 
12 | CCC[C@@H]1C[C@@H](C(=O)N[C@@H]([C@H]2O[C@H](SC)[C@H](O)[C@@H](O)[C@H]2O)[C@@H](C)O)N(C)C1 [lincomycin] |  |  | Susceptibility (diffusion method) (disk 2 μg): resistant
